This note sets out measurements from patent publication US20230276794A1, “MESH MATERIALS FOR CONTROLLED RELEASE OF ANTIVIRALS, METHOD AND USE” (priority 2020, published 2023).

The subject of the experiment is Coronavirus (MHV-3 Strain). The format is cell-based, Coronavirus MHV-3 Strain genus Betacoronavirus. The settings on record: concentration of 5%.

In the case of `N=C(NCCCCCCNC(=N)NC(=N)Nc1ccc(Cl)cc1)NC(=N)Nc1ccc(Cl)cc1` [5% Chlorhexidine, 1,1′-hexamethylene-bis(5-(p-chlorophenyl)-biguanide)], the “time after which activity was lost” value is 10 min.
